{
  "source": "patent USRE39155E1",
  "about": "“Use of 1,3-oxathiolane nucleoside analogues in the treatment of hepatitis B” (Shire BioChem Inc., priority 1991, dated 2006)",
  "key": {"[1]": {"test_system": "human hepatitis B virus", "test": "2.2.15 cells (Hep G2 transfected with HBV genomic DNA), extracellular HBV DNA dot-blot after 10 day treatment", "format": "cell-based", "procedure": "(ii) The method used for this test is described in detail in Korba et al. Antiviral Research 15, 217-228, 1992, and summarised below.\nHep G2 cells transfected with human hepatitis B virus genomic DNA (2.2.15 cells) were grown and maintained in RPMI-1640 culture medium containing 5% foetal bovine serum, 2 mM glutamine and 50 μg/ml gentamicin sulphate, and checked routinely for G418 resistance. Cultures of 2.2.15 cells were grown to confluence in 24 well tissue culture plates and maintained for 2 to 3 days in that condition prior to drug treatment.\nThese solutions were diluted as needed in culture medium.\nThe culture medium on the confluent cells was changed 24 hours prior to exposure to test compounds. During the 10 day treatment the culture medium was changed daily. After 10 days of treatment the culture medium was collected and frozen at −70° C. for HBV DNA analysis.\nTo analyse extracellular HBV DNA, 0.2 ml samples of culture medium were incubated for 20 minutes at 25° C. in 1M NaOH/10X SSC (1X SSC is 0.15M NaCl/0.015 M Sodium Citrate, pH 7.2) and then applied to nitrocellulose membranes presoaked in 20X SSC using a blotting apparatus. Samples were neutralised by washing twice with 0.5 ml of 1M Tris, pH 7.2/2M NaCl and once with 5 ml of 20X SSC. Filters were then rinsed in 2X SSC and baked at 80° C. for 1 hour under vacuum.\nA purified 3.2 kb EcoRl HBV DNA fragment was labelled with [^32P]dCTP by nick translation and used as a probe to detect HBV DNA on the dot-blot by DNA hybridisation. After washing, the hybridised blot was dried and ^32P was quantified using an Ambis beta scanner."}, "[2]": {"test_system": "hepatitis B virus", "test": "General statement of activity against hepatitis B virus in vitro and in vivo"}, "[3]": {"test_system": "Duck hepatitis B virus", "test": "Activity against Duck hepatitis B virus in primary duck hepatocyte cultures, DHBV DNA dot-blot", "format": "cell-based", "details": "DHBV-infected primary duck hepatocytes", "procedure": "The DNA from DHBV-infected hepatocytes was extracted and spotted onto a nitrocellular filter. […] The DNA was extracted from 6-cm cell culture dishes at various times post-plating. In the VC group, cells were harvested at 2, 6, 8, 10, 14, 18 and 20 days. Duplicate samples were spotted for days 14, 18 and 20. […] Drugs were added to the culture at 2 days post-plating and maintained throughout media changes every 2 days. The total intracellular DNA was extracted from cells using the standard phenol extraction method. […] The pellet of nucleic acid was washed with ethanol and dried. The DNA was dissolved in a solution containing 12.5 mM Tris HCl, pH 7.5, 10 mM EDTA, 30% glycerol and 0.01% bromophenol blue."}, "[4]": {"details": "2.2.15 cells, 10 day treatment, extracellular HBV DNA, read-out: IC50"}, "[5]": {"details": "Duck hepatitis B virus, Hepatocyte, read-out: IC50"}},
  "note": "Read-outs that look alike come from different tables or passages of the source.",
  "data": [
    {"compound": "Nc1ccn([C@@H]2CS[C@H](CO)O2)c(=O)n1", "note": "[Compound 3TC, (2R,cis)-4-amino-1-(2-hydroxymethyl-1,3-oxathiolan-5-yl)-(1H)-pyrimidin-2-one]", "values": [
      {"measurement": "IC50", "setting": "[1]; Hepatitis B virus, HepG2, 240 h, 2.2.15 cells, 10 day treatment, extracellular HBV DNA, read-out: IC50", "result": 5.6, "unit": "µM"},
      {"measurement": "activity against the hepatitis B virus", "setting": "[2]", "result": "active both in vitro and in vivo"}
    ]},
    {"compound": "Nc1nc2c(ncn2[C@H]2C[C@@H](CO)[C@H](O)C2)c(=O)[nH]1", "note": "[cdG, carbocyclic deoxyguanosine]", "values": [
      {"measurement": "IC50", "setting": "[1]; [4]", "result": 0.034, "unit": "µM"}
    ]},
    {"compound": "Nc1ncnc2c1ncn2[C@@H]1O[C@H](COP(=O)(O)O)[C@@H](O)[C@@H]1O", "note": "[araAMP, adenosylarabinoside-5′-monophosphate]", "values": [
      {"measurement": "IC50", "setting": "[1]; [4]", "result": 2.9, "unit": "µM"}
    ]},
    {"compound": "Nc1ccn([C@H]2CS[C@@H](CO)O2)c(=O)n1", "note": "(stereo in doubt) [Compound 3TC, (2R,cis)-4-amino-1-(2-hydroxymethyl-1,3-oxathiolan-5-yl)-(1H)-pyrimidin-2-one]", "values": [
      {"measurement": "IC50", "setting": "[3]; [5]", "result": "< 1", "unit": "µg/mL"}
    ]},
    {"compound": "Nc1nc(N)c2ncn([C@H]3CC[C@@H](CO)O3)c2n1", "note": "[ddDAPR, 2,6-diaminopurine-9-β-D-2′,3′-dideoxyribofuranoside]", "values": [
      {"measurement": "IC50", "setting": "[3]", "result": 0.07, "unit": "µg/mL"}
    ]},
    {"compound": "Nc1ccn(C2CSC(CO)O2)c(=O)n1", "note": "(racemic) [Racemate, cis-4-amino-1-(2-hydroxymethyl-1,3-oxathiolan-5-yl-(1H)-pyrimidin-2-one]", "values": [
      {"measurement": "activity against the hepatitis B virus", "setting": "[2]; listed as BCH-189", "result": "active both in vitro and in vivo"},
      {"measurement": "activity against the hepatitis B virus", "setting": "[2]; listed as compound of formula (I)", "result": "inhibit the hepatitis B virus both in vitro and in vivo"}
    ]},
    {"compound": "Nc1nc2c(ncn2[C@H]2CC[C@@H](CO)O2)c(=O)[nH]1", "note": "[ddG, 2′,3′-dideoxy-guanosine]", "values": [
      {"measurement": "IC50", "setting": "[3]; [5]", "result": 0.07, "unit": "µg/mL"}
    ]},
    {"compound": "Nc1ccn([C@H]2CC[C@@H](CO)O2)c(=O)n1", "note": "[ddC, 2′,3′-dideoxycytidine]", "values": [
      {"measurement": "IC50", "setting": "[1]; Hepatitis B virus, HepG2, 240 h, read-out: IC50 μM", "result": 2.2, "unit": "µM"}
    ]}
  ]
}
